Entries after “also recorded” stand apart in the source; their conditions may differ. Where a name gives a salt, the structure may show the parent alone. Read-outs that look alike come from different tables or passages of the source. Blank lines part the entries; values can stand above or below the molecule they belong to.
Legend:
[1] = Solubility assessment at 20 mg/ml; assay type: physicochemical; conditions: for 20 mg/ml Solubility: dissolved in DMSO; for pH: 20 mg/ml solution
Method: Solubility is an important property for therapeutic drug candidates. Poor solubility can lead to low bioavailability resulting in suboptimal drug delivery. It can also prevent the evaluation of test agents in animals because the concentration(s) needed to achieve the desired effect cannot be achieved to poor solubility. For solubility assessments, small molecules targeting RSK were compared. For these assessments, 100 mM solutions of the compounds dissolved in DMSO were diluted in DMEM growth media (Life Technologies) supplemented with fetal bovine serum (FBS, Life Technologies) and 100 units/ml penicillin and 100 units/ml streptomycin (Life Technologies) to make 20 mg/ml solutions. Once diluted, the solutions were vortexed and examined for the formation of precipitates. […] For Compound 26, a 100 mM solution of the compound dissolved in DMSO was diluted in phosphate buffered saline (Life Technologies) to make a 20 mg/ml solution. The stock of […] was chosen because this is the upper end of what would be required to dose mice for a range of studies including MTD, PK, PD and efficacy. The pH of this solution was determined to be 2, as previously described. […] At high concentrations some RSK inhibitors were highly soluble while others were not. Compound 0 is (R)—N-(1-benzyl-1H-pyrazol-4-yl)-9-methyl-6-oxo-6,7,8,9-tetrahydropyrido[3′,2′:4,5]pyrrolo[1,2-a]pyrazine-2-carboxamide. Compound 0 was not soluble, whereas Compounds 18, 20, 21, 25 and 26 were soluble under the same conditions (Table 5).

RSK2 = RSK2 (Homo sapiens (Human), UniProt P51812); experiment: Radioisotope kinase assay (SignalChem), RSK2; assay type: biochemical
Method: The assay conditions for the RSK2 kinase target were optimized to yield acceptable enzymatic activity. In addition, the assays were optimized to give high signal-to-noise ratio.
Radioisotope assays (SignalChem) were performed for the evaluation of the kinase target profiling and all assays were performed in a designated radioactive working area. The kinase targets were RSK1, RSK2, RSK3, RSK4 and MK2.
The assay was initiated by the addition of ^33P-ATP and the reaction mixture incubated at 30° C. for 15 minutes. After the incubation period, the assay was terminated by spotting 10 μL of the reaction mixture onto Multiscreen phosphocellulose P81 plate. The Multiscreen phosphocellulose P81 plate was washed 3 times for approximately 15 minutes each in a 1% phosphoric acid solution. The radioactivity on the P81 plate was counted in the presence of scintillation fluid in a Trilux scintillation counter.
Blank controls were set up for each target kinase which included all the assay components except the addition of the appropriate substrate (which was replaced with equal volume of assay dilution buffer). The corrected activity for each target kinase was determined by removing the blank control value.

CD34+ cells = experiment: Colony forming unit hematopoietic stem cell assay; assay type: cell-based, human; conditions: ratio of IC50 values against CD34+ cells and MDA-MB-231 cells
Method: The hematopoietic colony forming cell assay was conducted based on a protocol outlined by StemCell Technologies. […] Following the addition of CD34^+ cells isolated from human cord blood or peripheral blood (StemCell Technologies) at a final concentration of 5×10^2 cells per dish, the tubes were vortexed and allowed to stand for 5 minutes at room temperature. Next, the MethoCult mixtures were dispensed into 35 mm dishes (Corning Incorporated) through blunt end needles (StemCell Technologies) and 5 ml syringes (BD Biosciences) at a volume of 1.1 ml per dish. The medium was evenly distributed across the surface of each dish by gentle tilting and rotation. The dishes were then placed in a 100 mm culture dish (Grenier Bio-One) containing additional 35 mm dishes with sterile water to maintain humidity. The culture dish was then placed at 37° C. in a humidified incubator containing 5% CO2 for 13 days. The number of myeloid and erythroid derived colonies in both the treated and control dishes were counted and compared.

[2] = Plasma and tumor levels by LC/MS in MDA-MB-231 xenograft mice; assay type: in vivo; conditions: nu/nu, mouse, oral, 100 mg/kg; for concentration at 30 min: 30 minutes after last dose
[3] = test system: phosphorylated Y-box binding protein-1 (YB-1) at serine 102 (P—YB-1S102); experiment: Immunoblotting of phosphorylated YB-1 in MDA-MB-231 cells; conditions: MDA-MB-231, 0.01-1 uM, 96 hrs
Method: Following desired experimental conditions, breast cancer cell lines grown and treated in 6 well plates or 100 mm culture dishes (Grenier Bio-One) were placed on ice and the supernatant from each well was removed and the cells were washed in cold PBS. Following removal of PBS, cells were exposed to radioimmunoprecipitation assay (RIPA) buffer (50 mM Tris-HCl (pH 8), 150 mM NaCl, 1% NP-40, 0.5% sodium deoxycholate, 0.1% SDS; Fisher Scientific) supplemented with 1% phosphatase inhibitor (Fisher Scientific) and 1% protease inhibitor (Fisher Scientific) for 10 minutes. Samples were transferred to eppendorf tubes, vortexed and then centrifuged at 14 000 rpm for 10 minutes. Supernatants were collected as whole cell lysates. For mouse tumour tissues, each sample was place in a 35 mm culture dish with complete RIPA lysis buffer. The samples were diced in the buffer on ice with a sterile scalpel (VWR) and the buffer and tissue were transferred to an eppendorf tube. The samples were left on ice for 10 minutes with periodic vortexing every 2 to 3 minutes. The samples were then transferred to a Qiashredder (Qiagen) and centrifuged at 14 000 rpm for 2 minutes. The flow through was transferred to a new eppendorf tube and the samples were centrifuged again at 14 000 rpm for 5 minutes. Supernatants were collected as whole cell lysates.
For the majority of experiments in this study, 30 μg of protein per well was loaded. Samples were then resolved on SDS-PAGE (polyacrylamide gel electrophoresis) using various percentages of acrylamide gels (8%-12%), depending on the proteins of interest. […] For certain immunoblots, bands of proteins of interest were scanned and band intensity ratios were determined by densitometric analysis (ImageJ). […] To assess whether cells are actively undergoing cell death, the activity of poly ADP ribose polymerase (PARP) (1:1000 CST) was also measured using the immunoblotting method.

HLA-DRA mRNA = experiment: Immuno-oncology: HLA-DRA mRNA expression; assay type: cell-based, Human; conditions: MDA-MB-231 and JIMT-1 cells; Compound 16 2 or 4 uM, Compound 18 1, 2, or 4 uM
Excerpt: (§1) A key feature of cancer is low immunogenicity. This can occur by several mechanisms that allow the cells to escape immune recognition. […] HLA-DRA is a member of MHC-II genes and CIITA is the master regulator of MHC II transcription. Thus it was surprising that CIITA, which would be expected to regulate MHC II gene expression, was not altered by RSK inhibition. […] HLA-DRA is important for immune recognition while PD-L1 is involved in immune checkpoints.

[4] = test system: CD274, the gene that encodes PD-L1; experiment: Immuno-oncology: CD274 expression in MDA-MB-231 cells; assay type: cell-based, Human; conditions: Compound 16 2 or 4 uM, Compound 18 1, 2 or 4 uM
Excerpt: as §1

CIITA mRNA = experiment: Immuno-oncology: CIITA mRNA expression; assay type: cell-based, Human; conditions: MDA-MB-231 and JIMT-1 cells; Compound 16 2 or 4 uM, Compound 18 1, 2, or 4 uM
Excerpt: as §1

Chain of RSK2 (P51812 whole entry): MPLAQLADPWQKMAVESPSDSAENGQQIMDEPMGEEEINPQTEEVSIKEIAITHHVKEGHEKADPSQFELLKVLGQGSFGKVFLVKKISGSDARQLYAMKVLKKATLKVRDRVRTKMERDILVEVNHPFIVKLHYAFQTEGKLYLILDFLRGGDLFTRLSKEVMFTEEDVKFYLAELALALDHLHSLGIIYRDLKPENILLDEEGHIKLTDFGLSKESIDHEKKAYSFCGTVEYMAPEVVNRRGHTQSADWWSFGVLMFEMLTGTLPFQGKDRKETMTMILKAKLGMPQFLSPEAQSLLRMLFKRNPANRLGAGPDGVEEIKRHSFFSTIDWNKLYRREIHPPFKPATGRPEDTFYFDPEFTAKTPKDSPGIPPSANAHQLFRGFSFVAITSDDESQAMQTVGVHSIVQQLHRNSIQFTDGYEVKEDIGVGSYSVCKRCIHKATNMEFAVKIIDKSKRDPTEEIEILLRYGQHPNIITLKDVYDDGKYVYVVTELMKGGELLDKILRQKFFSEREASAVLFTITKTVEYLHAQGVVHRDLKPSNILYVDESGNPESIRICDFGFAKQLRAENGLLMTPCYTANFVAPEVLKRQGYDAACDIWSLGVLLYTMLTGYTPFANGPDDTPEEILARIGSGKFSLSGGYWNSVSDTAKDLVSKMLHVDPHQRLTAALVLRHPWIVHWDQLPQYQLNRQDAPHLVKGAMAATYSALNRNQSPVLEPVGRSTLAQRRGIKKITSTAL

SMILES: C[C@@H]1CNC(=O)c2cc3ccc(C(=O)Nc4cnn(CC5CCN(C)CC5)c4)nc3n21 [Compound 20, (R)-9-methyl-N-(1-((1-methylpiperidin-4-yl)methyl)-1H-pyrazol-4-yl)-6-oxo-6,7,8,9-tetrahydropyrido[3′,2′:4,5]pyrrolo[1,2-a]pyrazine-2-carboxamide]
IC50 (RSK2): 124 nM | pH ([1]; DMSO diluted in DMEM): 8 | 20 mg/ml Solubility ([1]; diluted in DMEM): Soluble

SMILES: CC(=O)O[C@H]1C(=O)[C@@]2(C)[C@H]([C@H](OC(=O)c3ccccc3)[C@]3(O)C[C@H](OC(=O)[C@H](O)[C@@H](NC(=O)c4ccccc4)c4ccccc4)C(C)=C1C3(C)C)[C@]1(OC(C)=O)CO[C@@H]1C[C@@H]2O [Taxol, paclitaxel, reference compound]
Therapeutic Window (CD34+ cells): 6.9X

SMILES: C[C@@H]1CNC(=O)c2cc3ccc(C(=O)Nc4cnn(Cc5ccccc5)c4)nc3n21 [Compound 0, (R)—N-(1-benzyl-1H-pyrazol-4-yl)-9-methyl-6-oxo-6,7,8,9-tetrahydropyrido[3′,2′:4,5]pyrrolo[1,2-a]pyrazine-2-carboxamide, reference compound]
20 mg/ml Solubility ([1]; diluted in DMEM): not soluble; also recorded: Precipitate | solubility for systemic delivery / pharmacodynamics evaluation ([1]; mice): poor or nonexistent solubility | Therapeutic Window (CD34+ cells): 50X

SMILES: C[C@@H]1CNC(=O)c2cc3ccc(C(=O)Nc4cnn(Cc5ccc(N)cc5)c4)nc3n21 [Compound 25, (R)—N-(1-(4-aminobenzyl)-1H-pyrazol-4-yl)-9-methyl-6-oxo-6,7,8,9-tetrahydropyrido[3′,2′:4,5]pyrrolo[1,2-a]pyrazine-2-carboxamide hydrochloride salt]
IC50 (RSK2): 18 nM | concentration at 30 min ([2]; plasma, 100 mg/kg BID PO three days, read-out: plasma level, average): 35.1 µM | concentration at 30 min ([2]; tumor, 100 mg/kg BID PO 21 days, read-out: average concentration in the tumors): 7.7 µM | concentration at 30 min ([2]; tumor, 100 mg/kg BID PO three days, read-out: Tumor level, average): 7.1 µM | Kp at 30 min ([2]; tumor/plasma, three days of treatment, read-out: tumor uptake (ratio between tumor and plasma)): 0.2 | pH ([1]; DMSO diluted in DMEM, hydrochloride salt): 2 | 20 mg/ml Solubility ([1]; diluted in DMEM, hydrochloride salt): Soluble | Therapeutic Window (CD34+ cells; hydrochloride salt): >100X

SMILES: C[C@@H]1CNC(=O)c2cc3ccc(NC(=O)c4cnn(Cc5ccccc5)c4)cc3n21 [Compound 11, (R)-1-benzyl-N-(4-methyl-1-oxo-1,2,3,4-tetrahydropyrazino[1,2-a]indol-7-yl)-1H-pyrazole-4-carboxamide]
IC50 (RSK2): 1380 nM

SMILES: C[C@@H]1CNC(=O)c2cc3ccc(C(=O)Nc4cnn(Cc5ccccc5N)c4)nc3n21 [Compound 17, (R)—N-(1-(2-aminobenzyl)-1H-pyrazol-4-yl)-9-methyl-6-oxo-6,7,8,9-tetrahydropyrido[3′,2′:4,5]pyrrolo[1,2-a]pyrazine-2-carboxamide]
IC50 (RSK2): 14 nM

SMILES: C[C@@H]1CNC(=O)c2cc3ccc(C(=O)Nc4cnn(Cc5cccc(N)c5)c4)nc3n21 [Compound 16, (R)—N-(1-(3-aminobenzyl)-1H-pyrazol-4-yl)-9-methyl-6-oxo-6,7,8,9-tetrahydropyrido[3′,2′:4,5]pyrrolo[1,2-a]pyrazine-2-carboxamide]
IC50 (RSK2): 23 nM | loss of P—YB-1 [3]: dose dependent loss | levels of HLA-DRA mRNA (HLA-DRA mRNA): elevated | levels of CD274 [4]: reduced | mRNA expression of CIITA (CIITA mRNA): little effect | Therapeutic Window (CD34+ cells): >100X

More lines, now with the values ahead:

20 mg/ml Solubility ([1]; diluted in DMEM): Precipitate
SMILES: C[C@@H]1CNC(=O)c2c(Cl)c3ccc(C(=O)Nc4cnn(Cc5ccccc5)c4)nc3n21 [Compound 24, (R)—N-(1-benzyl-1H-pyrazol-4-yl)-5-chloro-9-methyl-6-oxo-6,7,8,9-tetrahydropyrido[3′,2′:4,5]pyrrolo[1,2-a]pyrazine-2-carboxamide]

pH at which the compound remained in solution ([1]; 20 mg/ml in PBS after 4M NaOH was added): 9 | pH ([1]; DMSO diluted in PBS, hydrochloride salt): 2-9 | 20 mg/ml Solubility ([1]; diluted in PBS, hydrochloride salt): Soluble
SMILES: C[C@@H]1CNC(=O)c2cc3ccc(C(=O)Nc4cnn(Cc5ccc(CN)cc5)c4)nc3n21 [Compound 26, (R)—N-(1-(4-(aminomethyl)benzyl)-1H-pyrazol-4-yl)-9-methyl-6-oxo-6,7,8,9-tetrahydropyrido[3′,2′:4,5]pyrrolo[1,2-a]pyrazine-2-carboxamide hydrochloride salt]

pH ([1]; DMSO diluted in DMEM): 9 | 20 mg/ml Solubility ([1]; diluted in DMEM): Soluble
SMILES: C[C@@H]1CNC(=O)c2cc3ccc(C(=O)Nc4ccccc4C(N)=O)nc3n21 [Compound 21, (R)—N-(2-carbamoylphenyl)-9-methyl-6-oxo-6,7,8,9-tetrahydropyrido[3′,2′:4,5]pyrrolo[1,2-a]pyrazine-2-carboxamide]

20 mg/ml Solubility ([1]; diluted in DMEM): Precipitate
SMILES: C[C@@H]1CNC(=O)c2cc3ccc(C(=O)Nc4cnn(Cc5ccc(C(F)(F)F)cc5)c4)nc3n21 [Compound 22, (R)-9-methyl-6-oxo-N-(1-(4-(trifluoromethyl)benzyl)-1H-pyrazol-4-yl)-6,7,8,9-tetrahydropyrido[3′,2′:4,5]pyrrolo[1,2-a]pyrazine-2-carboxamide]
